# Assay results published in US20250275948A1, “(N-[4-(2,3-DIHYDRO-1H-INDEN-5-YL)-1,3-THIAZOL-2-YL]-2-[4-METHYL-4-(NAPHTHALEN-2-YL)-2,5-DIOXOIMIDAZOLIDIN-1-YL]ACETAMIDE AS STABILIZER OF CLOCK:BMAL1 INTERACTION FOR THE TREATMENT OF CIRCADIAN RHYTHM DISEASES AND DISORDERS” (KOC UNIVERSITESI, priority 2022, published 2025).
# What was measured:
# CLOCK and BMAL1 [1] = molecular target: T1, CLOCK and BMAL1 (Mus musculus, UniProt O08785+Q9WTL8); assay: Subcellular fractionation from mice liver; design: species or system mice (C57BL/6J); settings: in vivo and in vitro
# T1 construct: from tissue; host or cells: liver of C57BL/6J mice
# Method: 8-12 weeks old male C57BL/6J mice were used for in vivo studies. Mice weighing 24-28 grams were subjected to a single dose of CLK95 (50 mg/kg) or vehicle (DMSO:Cremophor EL: 0.9% NaCl; 2.5:15:82.5, v/v/v) intraperitoneally. Animals which were obtained from Koç University Animal Research Facility were fed ad libitum. Four hours after treatment, animals were sacrificed, and the internal organs were harvested.
# Subcellular fractionation from mice liver was performed by using 10 mg tissue sample. Buffers that were used in this process are same as in given in section 3.13. First, the tissue was washed in 500 μL ice-cold 1×PBS buffer and then resuspended in 300 μL cytosolic lysis buffer by pipetting and incubated on ice for 10 min. Samples were centrifuged at 660×g for 5 minutes (4° C.) to get rid of cell debris. While supernatants were collected and transferred to new microcentrifuge tubes for processing later to give cytosolic fractions, pellets containing intact nucleus were washed 3 times with 300 μL cytosolic lysis buffer. At the end of each wash, suspensions were centrifugated for 5 minutes at 660×g (4° C.). […] Samples were analysed with Western blot as described earlier using anti-CLOCK (Bethyl, A302-618A), anti-BMAL1 (Santa Cruz Biotech., SC-365645), anti-CRY1 (Bethyl, A302-614A), anti-Histone H3 (Abcam, ab1791), and anti-αTUBULIN (Sigma-Aldrich, T9026) antibodies were used.
# [2] = test system: NIH 3T3 Bmal1-dLuc and U2OS Bmal1-dLuc cells; assay: Real-time monitoring of circadian oscillation; format: cell-based
# Method: NIH 3T3 Bmal1-dLuc and U2OS Bmal1-dLuc cells were used for real-time monitoring of circadian oscillation. While LumiCycle 32 (Actimetrics, USA) was used for recording the luminescence signals of NIH 3T3 Bmal1-dLuc cells, Synergy H1 (BioTek, USA) was used for recording the luminescence signals of U2OS Bmal1-dLuc cells. NIH 3T3 Bmal1-dLuc cells were plated in 35 mm cell culture dish at density of 45×10^4 cell/plate and incubated overnight at 37° C. under 5% CO2. The next day, cell medium was replaced with 0.1 μM Dexamethasone (Sigma D-8893) containing DMEM to synchronize the cells. After 2 hours incubation, cell media was exchanged with appropriate amount of CLK95 containing recording medium (10 g low glucose DMEM powder (Sigma D2902), 3.5 mg/mL D(+) glucose powder (Sigma G7021), 0.35 mg/mL sodium bicarbonate (Sigma S5761), 10 mM HEPES (Gibco 15630106), 5% FBS (Gibco, 16000044), 1% NEAA (Multicell 321-011-EL), 25 U/mL streptomycin-penicillin (Gibco 15140-122) which was supplemented with 0.1 mM Luciferin. Then plates were sealed with silicone grease to prevent evaporation and immediately placed in LumiCycle. This instrument continuously recorded the luminescence for each plate for 5-7 days with 10 minutes intervals at 37° C. LumiCycle Analysis software (Actimetrics) was used to analyse the changes in circadian rhythm. The data of the first day was excluded from analysis due to transient deviations caused after medium change.
# For the experiments that were performed using Synergy-H1, U2OS Bmal1-dLuc cells were plated as triplicates into an opaque 96-well plate (5×10^4 cell/well). After synchronizing and treating the cells with CLK95, opaque 96-well plate was sealed with an optically clear film and placed under Synergy-H1 instrument. Luminescence signals were recorded for 5-7 days with 24 minutes intervals at 32° C.
# CLOCK and BMAL1 [3] = assay: Effect on core clock protein levels (western blot), U2OS Bmal1-dLuc cells; format: cell-based, human; settings: unsynchronized U2OS Bmal1:dLuc cells, 24 hours
# Method: The effect of CLK95 on core-clock proteins was assessed both on synchronized and unsynchronized U2OS Bmal1-dLuc cells. Cells were seeded into 6 well-plates with a density of 45×10^4 cell/well and incubated at 37° C. under 5% CO2 for 16 hours. For unsynchronized cells, they were treated with appropriate amounts CLK95 (final 0.25% DMSO) and further incubated for 24 hours. For synchronized cells, cell media was exchanged with 0.1 μM Dexamethasone containing DMEM. After synchronization, cells were subjected to the CLK95 (final 0.25% DMSO). After 24 hours of incubation, cells were harvested with 6 hours intervals for 7 time points (24H-60H). Then harvested cells were lysed with 90 μL RIPA buffer (50 mM Tris-HCl pH 7.4, 150 mM NaCl, 1% Triton x-100, 0.1% SDS, 1×PIC) and left for an incubation on ice for 30 minutes. Following, samples were centrifugated at 15000×g for 20 minutes at 4° C. After boiling samples with Laemmli buffer for 7 minutes at 95° C., 10 μg of protein was loaded for each sample to 10% SDS-polyacrylamide gel. For Western blot analysis following antibodies used to determine the level of core clock proteins: anti-CLOCK (Bethyl, A302-618A), anti-BMAL1 (Santa Cruz Biotech., SC-365645), anti-PER2 (Proteintech, 67513-1-Ig), anti-CRY1 (Bethyl, A302-614A), and anti-β-Actin (Cell Signaling, 8H10D10) antibodies.
# [4] = NIH3T3 Bmal1-dLuc (Lumicycle) and U2OS Bmal1-dLuc (Synergy H1) cells
smiles,measurement,setting,value
CC1(c2ccc3ccccc3c2)NC(=O)N(CC(=O)Nc2nc(-c3ccc4c(c3)CCC4)cs2)C1=O (stereo not drawn) [CLK95],translocation of CLOCK and BMAL1 into the nucleus,CLOCK and BMAL1 [1],interfering with the translocation of CLOCK and BMAL1 into the nucleus both in vivo and in vitro
same,effect on circadian rhythm,[2]; Bmal1-dLuc U2OS cells,destroying the circadian rhythm
same,effect on circadian amplitude,[2]; [4],decreases the amplitude
same,effect on circadian period,[2]; [4],increases the period
same,effect of higher doses on endogenous clock,[2]; higher doses,completely suppress the endogenous clock
same,CLOCK and BMAL1 protein levels,CLOCK and BMAL1 [3],increased
